Source: patent US20230105082A1, “ANTIMICROBIAL COMPOSITIONS FOR PET FOOD PRODUCTS” (priority 2020, published 2023)

System: mixture in equal parts of Salmonella ser. Newport, Salmonella ser. Senftenberg, and Salmonella ser. Typhimurium
Assay: Salmonella inhibition in inoculated poultry fat (Examples 2, 4 and 5)
Type: cell-based, Salmonella enterica subsp. enterica
Settings: 1000 ppm in fat; 1 month after inoculation
Excerpt: Bacterial strains and culture medium Six serovars of Salmonella enterica subsp. enterica were used in these studies: Salmonella ser. Infantis (CIP103549), Salmonella ser. Mbandaka (CIP105859), and Salmonella ser. Senftenberg (isolate from pork/poultry from ANSES collection) for Example 1, Example 3 and Example 6 or Salmonella ser. Newport, Salmonella ser. Senftenberg, and Salmonella ser. Typhimurium (all isolated from pet food) for Example 2, Example 4, and Example 5. All strains were kept in collection at -80° C. in glycerol broth. Bacterial strains were cultured in Brain Heart Infusion agar and subcultured in Brain Heart Infusion broth at 37° C. for 20±2 h (BHI, VWR, USA). Salmonella count in poultry fat was carried out using Xylose Lysine Deoxycholate agar (XLD, VWR, USA) for Example 1, Example 3, and Example 6 or Violet Red Bile Glucose agar (VRBG, BioRad, USA) for Example 2, Example 4 and Example 5. Salmonella detection was done following modified EN ISO 6579-1 in 125 g of poultry fat.
Inoculum preparation Two types of matrix inoculum were used. […]
Antimicrobial efficacy of Compositions 5, 6, 7, 8, 16 was tested when added at 500 ppm in fat and compared to antimicrobial efficacy of phosphoric acid (Composition 1) when added at 1000 ppm in fat. The antimicrobial efficacy of Composition 16 at 1000 ppm in fat was also evaluated. […]

O=P(O)(O)O [Composition 1, Phosphoric acid]
Salmonella detection: still detected
